Data from ChEMBL document CHEMBL4811320, “Design, synthesis and biological evaluation of 2-styryl-5-hydroxy-4-pyrone derivatives and analogues as multiple functional agents with the potential for the treatment of Alzheimer's disease” (Bioorg Med Chem, 2021).
Calls of active or inactive are those of the source. No cut-off for these calls is given here.

Columns and labels:
[1] = biological target: Histamine H3 receptor (Homo sapiens, UniProt Q9Y5N1); experiment: Antagonist activity at human H3 receptor by TR-FRET assay; type: functional
[2] = biological target: T1, Amyloid-beta precursor protein (Homo sapiens, UniProt P05067); experiment: Inhibition of amyloid beta (1 to 42) (unknown origin) self-induced aggregation incubated for 24 hrs by Thioflavin T based fluorometric assay
[3] = Antioxidant activity assessed as trolox equivalent antioxidant capacity; type: functional
[4] = biological target: T1, Amyloid-beta precursor protein; experiment: Inhibition of amyloid beta (1 to 42) (unknown origin) self-induced aggregation at 20 uM incubated for 24 hrs by Thioflavin T based fluorometric assay relative to control
[5] = Metal chelating activity assessed as compound-Fe3+ complex formation by UV-Vis spectroscopic analysis
[6] = Metal chelating activity assessed as compound-Cu2+ complex formation by UV-Vis spectroscopic analysis
[7] = biological target: T1, Amyloid-beta precursor protein; experiment: Inhibition of amyloid beta (1 to 42) (unknown origin) self-induced aggregation at 20 uM incubated for 24 hrs by transmission electron microscopic analysis
[8] = Inhibition of copper-induced amyloid beta (1 to 42) (unknown origin) aggregation at 50 uM measured after 24 hrs by transmission electron microscopic analysis
[9] = biological target: T1, Amyloid-beta precursor protein; experiment: Disaggregation of self-induced amyloid beta (1 to 42) (unknown origin) preformed fibrils at 20 uM measured after 24 hrs by transmission electron microscopic analysis
[10] = Metal chelating activity assessed as formation of Cu2+-compound complex stoichiometry ratio of 2:1 in presence of CuCl2 by Job's plot analysis
[11] = Inhibition of copper-induced amyloid beta (1 to 42) (unknown origin) aggregation at 50 uM measured after 24 hrs by thioflavin T based fluorescence assay
[12] = Disaggregation of copper-induced amyloid beta (1 to 42) (unknown origin) preformed fibrils at 50 uM measured after 24 hrs by transmission electron microscopic analysis
[13] = Disaggregation of copper-induced amyloid beta (1 to 42) (unknown origin) preformed fibrils at 50 uM measured after 24 hrs by ThT fluorescence assay
[14] = Metal chelating activity assessed as mole fraction required to show 2:1 stoichiometry ratio for compound-Cu2+ complex formation in presence of CuCl2 by Job's plot analysis
[15] = biological target: T1, Amyloid-beta precursor protein; experiment: Disaggregation of self-induced amyloid beta (1 to 42) (unknown origin) preformed fibrils assessed as reduction in fluorescence intensity at 20 uM after 24 hrs by thioflavin-T fluorescence assay relative to control; parameters: scale not given: the % may be the effect or the level left

T1 sequence (P05067 whole entry): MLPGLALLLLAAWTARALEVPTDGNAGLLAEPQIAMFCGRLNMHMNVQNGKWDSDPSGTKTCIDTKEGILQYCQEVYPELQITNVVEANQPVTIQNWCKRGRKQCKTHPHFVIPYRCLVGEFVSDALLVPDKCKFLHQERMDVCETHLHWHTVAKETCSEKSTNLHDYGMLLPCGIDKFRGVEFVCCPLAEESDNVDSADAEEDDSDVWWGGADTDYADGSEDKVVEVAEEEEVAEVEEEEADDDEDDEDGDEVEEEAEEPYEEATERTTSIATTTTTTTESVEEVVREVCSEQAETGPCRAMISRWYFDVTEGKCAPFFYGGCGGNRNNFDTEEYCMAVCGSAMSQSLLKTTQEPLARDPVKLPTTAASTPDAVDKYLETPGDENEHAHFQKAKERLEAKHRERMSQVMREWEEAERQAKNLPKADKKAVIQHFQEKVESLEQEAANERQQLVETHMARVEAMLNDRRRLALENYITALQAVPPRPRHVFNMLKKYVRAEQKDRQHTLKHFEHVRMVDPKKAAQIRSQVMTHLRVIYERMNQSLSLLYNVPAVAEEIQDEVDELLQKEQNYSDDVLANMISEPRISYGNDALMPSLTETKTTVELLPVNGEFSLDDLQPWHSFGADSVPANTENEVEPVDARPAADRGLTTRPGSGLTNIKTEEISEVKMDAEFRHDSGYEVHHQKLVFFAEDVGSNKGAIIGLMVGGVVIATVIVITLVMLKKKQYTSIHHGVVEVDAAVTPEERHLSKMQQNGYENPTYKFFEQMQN
Chain of Histamine H3 receptor (Q9Y5N1 whole entry): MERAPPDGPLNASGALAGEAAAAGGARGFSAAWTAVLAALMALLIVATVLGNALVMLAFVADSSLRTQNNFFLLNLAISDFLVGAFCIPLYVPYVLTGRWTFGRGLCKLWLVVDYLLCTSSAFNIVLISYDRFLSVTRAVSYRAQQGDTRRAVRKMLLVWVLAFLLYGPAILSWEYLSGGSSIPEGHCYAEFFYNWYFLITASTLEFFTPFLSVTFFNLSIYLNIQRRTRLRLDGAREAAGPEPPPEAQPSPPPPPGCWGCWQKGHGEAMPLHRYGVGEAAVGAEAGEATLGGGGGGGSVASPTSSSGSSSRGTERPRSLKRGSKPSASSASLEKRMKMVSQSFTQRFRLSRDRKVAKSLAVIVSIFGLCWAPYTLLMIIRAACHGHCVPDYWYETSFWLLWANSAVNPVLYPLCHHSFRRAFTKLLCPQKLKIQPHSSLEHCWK

SMILES | IC50 [1] [nM] | IC50 [2] [nM] | Activity [3] | inhibition [4] [%] | Activity [5] | Activity [6] | further results
Cc1oc(/C=C/c2ccc(OCCCN3CCCC3)cc2)cc(=O)c1O | 4.91 | 7010 | 2.12 | 74.7 | – | – | –
CN1CCN(CCCOc2ccc(/C=C/c3cc(=O)c(O)co3)cc2)CC1 | 178 | 5540 | 4.05 | 89.8 | – | – | –
Cc1oc(/C=C/c2ccc(OCCCN3CCCCC3)cc2)cc(=O)c1O | 2.65 | 6260 | 1.74 | 74.8 | – | – | –
Cc1c(C)c2c(c(C)c1O)CCC(C)(C(=O)O)O2 (centres undefined) | – | – | 1 | – | – | – | –
Oc1cccc2ccc(/C=C/c3ccc(OCCCN4CCCCC4)cc3)nc12 | 14.5 | – | 0.96 | 15.7 | – | – | –
CN(C)CCCOc1ccc(/C=C/c2cc(=O)c(O)cn2C)cc1 | 85.4 | 6180 | 1.34 | 70.4 | – | – | –
CCn1cc(O)c(=O)cc1/C=C/c1ccc(OCCCN2CCCC2)cc1 | 2.18 | 2070 | 1.43 | 97.6 | Active | Active | –
CCn1cc(O)c(=O)cc1/C=C/c1ccc(OCCCN2CCCCC2)cc1 | 5.07 | 3050 | 1.78 | 86.8 | Active | Active | –
CCN(CC)CCCOc1ccc(/C=C/c2cc(=O)c(O)cn2C)cc1 | 7.06 | 5380 | 1.43 | 85 | Active | Active | –
Cn1cc(O)c(=O)cc1/C=C/c1ccc(OCCCN2CCCCC2)cc1 | 4.74 | 2570 | 1.23 | 87 | Active | Active | –
CN1CCN(CCCOc2ccc(/C=C/c3cc(=O)c(O)cn3C)cc2)CC1 | 353 | 6020 | 0.73 | 75.7 | – | – | –
Cn1cc(O)c(=O)cc1/C=C/c1ccc(OCCCN2CCOCC2)cc1 | 30.1 | 5320 | 1.35 | 71.9 | – | – | –
O=c1cc(/C=C/c2ccc(OCCCN3CCOCC3)cc2)occ1O | 68.8 | 4120 | 4.39 | 93.3 | – | – | –
Oc1cccc2ccc(/C=C/c3ccc(OCCCN4CCCC4)cc3)nc12 | 16 | – | 0.73 | 17.6 | – | – | –
CN(C)CCCOc1ccc(/C=C/c2cc(=O)c(O)co2)cc1 | 104 | 4510 | 2.21 | 76.7 | – | – | –
O=c1cc(/C=C/c2ccc(OCCCN3CCCCC3)cc2)occ1O | 2.74 | 3260 | 5.22 | 90.8 | Active | Active | inhibition [7]: Active; inhibition [8]: Active; Activity [9]: Active; Activity [10]: Active; inhibition [11]: Active; Activity [12]: Active; Activity [13]: Active; Activity (mole fraction) [14]: 0.682; Activity [15]: 29.4%
CCN(CC)CCCC(C)Nc1ccnc2cc(Cl)ccc12 (centres undefined) | – | – | – | – | – | – | Activity [12]: Active; Activity [13]: Active
CCN(CC)CCCOc1ccc(/C=C/c2cc(=O)c(O)co2)cc1 | 16.9 | 3950 | 5.08 | 94.6 | Active | Active | –
O=c1cc(/C=C/c2ccc(OCCCN3CCCC3)cc2)occ1O | 8.25 | 2240 | 4.97 | 91.4 | Active | Active | inhibition [7]: Active; inhibition [8]: Active; Activity [9]: Active; Activity [10]: Active; inhibition [11]: Active; Activity [12]: Active; Activity [13]: Active; Activity (mole fraction) [14]: 0.671; Activity [15]: 35.1%
O=c1cc(/C=C/c2ccc(O)cc2)occ1O | – | – | 2.03 | – | – | – | –
Cn1cc(O)c(=O)cc1/C=C/c1ccc(OCCCN2CCCC2)cc1 | 3.37 | 3290 | 1.28 | 85.4 | Active | Active | –
COc1cc(/C=C/C(=O)CC(=O)/C=C/c2ccc(O)c(OC)c2)ccc1O | – | – | 1.11 | – | – | – | –
